# Measured values taken from PubChem BioAssay (NCI).
#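 Abbreviation: GI50, concentration required for 50% inhibition of growth. The concentration for full growth arrest is given as TGI.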
# Columns and labels:
# Test in all cases: inhibition of tumour cell growth, NCI panel, 384-well format
# UO-31 renal = system: UO-31 renal
# PC-3 prostate = system: PC-3 prostate
# MCF7 breast = system: MCF7 breast
# SR leukemia = system: SR leukemia
# NCI-H322M lung = system: NCI-H322M lung
# NCI-H522 lung = system: NCI-H522 lung
# SW-620 colon = system: SW-620 colon
# SK-MEL-5 melanoma = system: SK-MEL-5 melanoma
# SN12C renal = system: SN12C renal
# CAKI-1 renal = system: CAKI-1 renal
# NCI-H226 lung = system: NCI-H226 lung
# UACC-257 melanoma = system: UACC-257 melanoma
# OVCAR-4 ovarian = system: OVCAR-4 ovarian
# MALME-3M melanoma = system: MALME-3M melanoma
# BT-549 breast = system: BT-549 breast
# HCC-2998 colon = system: HCC-2998 colon
# 786-0 renal = system: 786-0 renal
# SNB-75 CNS = system: SNB-75 CNS
# SF-268 CNS = system: SF-268 CNS
# DU-145 prostate = system: DU-145 prostate
# HT29 colon = system: HT29 colon
# TK-10 renal = system: TK-10 renal
# K-562 leukemia = system: K-562 leukemia
# OVCAR-3 ovarian = system: OVCAR-3 ovarian
# NCI-H460 NSCLC = system: NCI-H460 NSCLC
# MDA-MB-468 breast = system: MDA-MB-468 breast
# LOX IMVI melanoma = system: LOX IMVI melanoma
# KM12 colon = system: KM12 colon
# MOLT-4 leukemia = system: MOLT-4 leukemia
# U251 glioblastoma = system: U251 glioblastoma
# A498 renal = system: A498 renal
# RPMI-8226 leukemia = system: RPMI-8226 leukemia
# M14 melanoma = system: M14 melanoma
# SK-MEL-2 melanoma = system: SK-MEL-2 melanoma
# HS 578T breast = system: HS 578T breast
# SK-OV-3 ovarian = system: SK-OV-3 ovarian
# SF-295 CNS = system: SF-295 CNS
# HOP-62 NSCLC = system: HOP-62 NSCLC
# COLO 205 colon = system: COLO 205 colon
# HL-60(TB) leukemia = system: HL-60(TB) leukemia
# CCRF-CEM leukemia = system: CCRF-CEM leukemia
# RXF 393 renal = system: RXF 393 renal
# NCI-H23 lung = system: NCI-H23 lung
# EKVX NSCLC = system: EKVX NSCLC
# HCT-15 colon = system: HCT-15 colon
# IGROV1 ovarian = system: IGROV1 ovarian
# T-47D breast = system: T-47D breast
# OVCAR-5 ovarian = system: OVCAR-5 ovarian
# SF-539 CNS = system: SF-539 CNS
# A549 NSCLC = system: A549 NSCLC
# MDA-MB-435 melanoma = system: MDA-MB-435 melanoma
# ACHN renal = system: ACHN renal
# MDA-MB-231 breast = system: MDA-MB-231 breast
# SK-MEL-28 melanoma = system: SK-MEL-28 melanoma
# HCT-116 colon = system: HCT-116 colon
# NCI/ADR-RES ovarian = system: NCI/ADR-RES ovarian
# UACC-62 melanoma = system: UACC-62 melanoma
# HOP-92 NSCLC = system: HOP-92 NSCLC
smiles,measurement,setting,value
O=C(O)c1ccc2c(c1)nc(Nc1cccc(Cl)c1)c1ccncc12,GI50,UO-31 renal,2.15 µM
same,TGI,UO-31 renal,6.11 µM
same,GI50,PC-3 prostate,1.6 µM
same,TGI,PC-3 prostate,3.69 µM
same,GI50,MCF7 breast,1.49 µM
same,TGI,MCF7 breast,4.06 µM
same,GI50,SR leukemia,1.45 µM
same,TGI,SR leukemia,2.77 µM
same,GI50,NCI-H322M lung,1.08 µM
same,TGI,NCI-H322M lung,3.29 µM
same,GI50,NCI-H522 lung,0.521 µM
same,TGI,NCI-H522 lung,1.84 µM
same,GI50,SW-620 colon,2.03 µM
same,TGI,SW-620 colon,4.79 µM
same,GI50,SK-MEL-5 melanoma,1.4 µM
same,TGI,SK-MEL-5 melanoma,2.71 µM
same,GI50,SN12C renal,1.5 µM
same,TGI,SN12C renal,3.69 µM
same,GI50,CAKI-1 renal,1.53 µM
same,TGI,CAKI-1 renal,3.73 µM
same,GI50,NCI-H226 lung,1.26 µM
same,TGI,NCI-H226 lung,2.66 µM
same,GI50,UACC-257 melanoma,1.57 µM
same,TGI,UACC-257 melanoma,3.46 µM
same,GI50,OVCAR-4 ovarian,1.54 µM
same,TGI,OVCAR-4 ovarian,6.77 µM
same,GI50,MALME-3M melanoma,1.04 µM
same,TGI,MALME-3M melanoma,2.56 µM
same,GI50,BT-549 breast,1.02 µM
same,TGI,BT-549 breast,2.67 µM
same,GI50,HCC-2998 colon,1.38 µM
same,TGI,HCC-2998 colon,3.89 µM
same,GI50,786-0 renal,1.75 µM
same,TGI,786-0 renal,4.75 µM
same,GI50,SNB-75 CNS,1.41 µM
same,TGI,SNB-75 CNS,3.85 µM
same,GI50,SF-268 CNS,1.15 µM
same,TGI,SF-268 CNS,2.87 µM
same,GI50,DU-145 prostate,1.71 µM
same,TGI,DU-145 prostate,5.2 µM
same,GI50,HT29 colon,2.95 µM
same,TGI,HT29 colon,10.1 µM
same,GI50,TK-10 renal,2.14 µM
same,TGI,TK-10 renal,5.81 µM
same,GI50,K-562 leukemia,1.5 µM
same,TGI,K-562 leukemia,3.32 µM
same,GI50,OVCAR-3 ovarian,0.399 µM
same,TGI,OVCAR-3 ovarian,1.95 µM
same,GI50,NCI-H460 NSCLC,2.28 µM
same,TGI,NCI-H460 NSCLC,7.89 µM
same,GI50,MDA-MB-468 breast,0.656 µM
same,TGI,MDA-MB-468 breast,2.05 µM
same,GI50,LOX IMVI melanoma,1.87 µM
same,TGI,LOX IMVI melanoma,3.8 µM
same,GI50,KM12 colon,1.89 µM
same,TGI,KM12 colon,4.38 µM
same,GI50,MOLT-4 leukemia,1.4 µM
same,TGI,MOLT-4 leukemia,2.73 µM
same,GI50,U251 glioblastoma,0.888 µM
same,TGI,U251 glioblastoma,2.46 µM
same,GI50,A498 renal,1.42 µM
same,TGI,A498 renal,3.31 µM
same,GI50,RPMI-8226 leukemia,1.88 µM
same,TGI,RPMI-8226 leukemia,3.35 µM
same,GI50,M14 melanoma,1.27 µM
same,TGI,M14 melanoma,3.08 µM
same,GI50,SK-MEL-2 melanoma,2.97 µM
same,TGI,SK-MEL-2 melanoma,4.54 µM
same,GI50,HS 578T breast,0.445 µM
same,TGI,HS 578T breast,2.33 µM
same,GI50,SK-OV-3 ovarian,1.43 µM
same,TGI,SK-OV-3 ovarian,3.94 µM
same,GI50,SF-295 CNS,1.81 µM
same,TGI,SF-295 CNS,4.59 µM
same,GI50,HOP-62 NSCLC,1.73 µM
same,TGI,HOP-62 NSCLC,3.86 µM
same,GI50,COLO 205 colon,1.86 µM
same,TGI,COLO 205 colon,4.14 µM
same,GI50,HL-60(TB) leukemia,1.54 µM
same,TGI,HL-60(TB) leukemia,2.93 µM
same,GI50,CCRF-CEM leukemia,1.18 µM
same,TGI,CCRF-CEM leukemia,2.42 µM
same,GI50,RXF 393 renal,1.56 µM
same,TGI,RXF 393 renal,3.98 µM
same,GI50,NCI-H23 lung,1.42 µM
same,TGI,NCI-H23 lung,2.97 µM
same,GI50,EKVX NSCLC,1.48 µM
same,TGI,EKVX NSCLC,3.93 µM
same,GI50,HCT-15 colon,1.74 µM
same,TGI,HCT-15 colon,3.66 µM
same,GI50,IGROV1 ovarian,1.95 µM
same,TGI,IGROV1 ovarian,4.64 µM
same,GI50,T-47D breast,1.4 µM
same,TGI,T-47D breast,3.55 µM
same,GI50,OVCAR-5 ovarian,1.77 µM
same,TGI,OVCAR-5 ovarian,8.81 µM
same,GI50,SF-539 CNS,1.19 µM
same,TGI,SF-539 CNS,3 µM
same,GI50,A549 NSCLC,2.99 µM
same,TGI,A549 NSCLC,> 100 µM
same,GI50,MDA-MB-435 melanoma,1.45 µM
same,TGI,MDA-MB-435 melanoma,3.33 µM
same,GI50,ACHN renal,2.52 µM
same,TGI,ACHN renal,8.01 µM
same,GI50,MDA-MB-231 breast,1.56 µM
same,TGI,MDA-MB-231 breast,3.7 µM
same,GI50,SK-MEL-28 melanoma,1.47 µM
same,TGI,SK-MEL-28 melanoma,3.16 µM
same,GI50,HCT-116 colon,1.53 µM
same,TGI,HCT-116 colon,3.08 µM
same,GI50,NCI/ADR-RES ovarian,1.69 µM
same,TGI,NCI/ADR-RES ovarian,3.28 µM
same,GI50,UACC-62 melanoma,1.37 µM
same,TGI,UACC-62 melanoma,2.77 µM
same,GI50,HOP-92 NSCLC,1.42 µM
same,TGI,HOP-92 NSCLC,4.65 µM
